US11149062B2, “HDAC inhibitors and methods of treatment using the same” (UWM Research Foundation, Inc., priority 2015, dated 2021)
Where two headings read alike, the source gives them in different places.

How the values were obtained:
[1] = biological target: T1, Recombinant human HDAC1 (Homo sapiens, UniProt Q13547); assay: HDAC-Glo I/II assay, HDAC1; assay type: biochemical; details: for IC50: Class I HDAC, compounds reduced by TCEP prior to assay, read-out: IC50 of HDAC1; for Class I selectivity Ratio HDAC 1/HDAC8 / Class I vs. Class IIa Ratio HDAC 1/HDAC6: ratio of IC50 values
T1 construct: purchased BPS Bioscience Inc
T1 sequence (Q13547 whole entry): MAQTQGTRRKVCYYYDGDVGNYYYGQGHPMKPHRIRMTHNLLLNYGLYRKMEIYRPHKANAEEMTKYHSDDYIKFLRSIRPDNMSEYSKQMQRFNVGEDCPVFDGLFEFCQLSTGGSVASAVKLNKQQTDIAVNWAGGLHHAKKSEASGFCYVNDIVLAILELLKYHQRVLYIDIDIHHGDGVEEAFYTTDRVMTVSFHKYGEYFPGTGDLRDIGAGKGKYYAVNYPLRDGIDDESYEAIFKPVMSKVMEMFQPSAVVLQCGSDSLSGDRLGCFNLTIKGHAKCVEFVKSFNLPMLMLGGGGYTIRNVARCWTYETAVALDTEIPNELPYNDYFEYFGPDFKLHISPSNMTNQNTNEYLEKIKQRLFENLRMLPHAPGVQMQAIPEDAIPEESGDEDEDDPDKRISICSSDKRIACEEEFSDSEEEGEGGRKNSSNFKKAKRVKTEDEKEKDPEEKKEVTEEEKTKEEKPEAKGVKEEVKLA
Protocol: (§1) The purified compounds of all fragments and natural product derivatives were evaluated for inhibitory effects on three different classes of HDAC proteins (class I, IIa, and IIb). […] All activity was determined by using a fluorescence-based in vitro assay. Class I HDAC proteins that were evaluated were HDAC1, HDAC2, HDAC3, HDAC8, HDAC4, and HDAC6. Class IIa HDAC protein were HDAC4 and the Class IIb HDAC protein were HDAC6.
(§2) HDAC-Glo™ I/II Assay and Screening System (Promega) was used to determine the HDAC inhibitory activity. Recombinant human HDAC1, HDAC2, HDAC3, HDAC4, HDAC6 and HDAC8 were purchased from BPS Bioscience Inc. The inhibitory activities of the test compounds against recombinant HDAC were performed according to reagent suppliers' protocols.
(§3) All test compounds were firstly dissolved in DMSO to make 10 mM stock solution. A certain amount of stock solution was diluted to 1 mM by DMSO and then reduced by tris(2-carboxyethyl)phosphine hydrochloride (TCEP) in a molar ration of 1:1.5 for 20 min at ambient temperature prior to being assayed. After reduction, a series of fivefold dilutions of each reduced compound were prepared with HDAC-Glo buffer and 25 μL of each dilution was added into a well on a 96-well plate. HDAC enzymes were diluted to the desired concentrations with HDAC-Glo buffer and 25 μL of each diluted enzyme was dispensed into a well to mix with 25 μL of testing compound at room temperature for 30-60 seconds. After the reaction mixture had been incubated at room temperature for 1 hour, 50 μL of HDAC-Glo reagent was added to each reaction well and mixed up for 30-60 seconds. Finally, the plate was incubated at room temperature for an additional 30 minutes before the luminescence was measured on a Synergy HT plate reader (Bio-Tek). The luminescence intensity data were analyzed using GraphPad Prism 5 (GraphPad Software). In the absence of any test compound, the luminescence intensity (I100) in each data set was defined as 100% activity. In the absence of both of HDAC enzymes and test compound, the luminescence intensity (I0) in each data set was defined as 0% activity. The relative activity (%) in the presence of each compound was calculated according to the following equation: % activity=(I−I0)/(I100−I0), where I=the luminescence intensity if a compound is present in the reaction. Experiments were performed in triplicate and the calculated mean values were used for plotting.

[2] = biological target: T2, Recombinant human HDAC2 (Homo sapiens, UniProt Q92769); assay: HDAC-Glo I/II assay, HDAC2; assay type: biochemical; details: Class I HDAC; compounds reduced by TCEP prior to assay
T2 construct: purchased BPS Bioscience Inc
T2 sequence (Q92769 whole entry): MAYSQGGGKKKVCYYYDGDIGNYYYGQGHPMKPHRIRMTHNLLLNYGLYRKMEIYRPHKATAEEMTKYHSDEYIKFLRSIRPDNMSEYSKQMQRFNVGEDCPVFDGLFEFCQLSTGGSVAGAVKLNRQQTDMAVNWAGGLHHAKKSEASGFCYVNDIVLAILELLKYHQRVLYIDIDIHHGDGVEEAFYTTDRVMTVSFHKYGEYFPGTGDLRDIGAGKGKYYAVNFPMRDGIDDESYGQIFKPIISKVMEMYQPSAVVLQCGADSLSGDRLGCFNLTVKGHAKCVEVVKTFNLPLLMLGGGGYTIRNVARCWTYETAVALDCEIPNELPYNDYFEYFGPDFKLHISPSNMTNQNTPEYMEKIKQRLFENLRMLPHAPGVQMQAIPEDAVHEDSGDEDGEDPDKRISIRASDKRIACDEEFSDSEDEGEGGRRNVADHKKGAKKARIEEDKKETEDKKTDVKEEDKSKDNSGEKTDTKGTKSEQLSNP
Protocol: as §1, §2, §3

[3] = biological target: T3, Recombinant human HDAC3 (Homo sapiens, UniProt O15379); assay: HDAC-Glo I/II assay, HDAC3; assay type: biochemical; details: Class I HDAC; compounds reduced by TCEP prior to assay
T3 construct: purchased BPS Bioscience Inc
T3 sequence (O15379 whole entry): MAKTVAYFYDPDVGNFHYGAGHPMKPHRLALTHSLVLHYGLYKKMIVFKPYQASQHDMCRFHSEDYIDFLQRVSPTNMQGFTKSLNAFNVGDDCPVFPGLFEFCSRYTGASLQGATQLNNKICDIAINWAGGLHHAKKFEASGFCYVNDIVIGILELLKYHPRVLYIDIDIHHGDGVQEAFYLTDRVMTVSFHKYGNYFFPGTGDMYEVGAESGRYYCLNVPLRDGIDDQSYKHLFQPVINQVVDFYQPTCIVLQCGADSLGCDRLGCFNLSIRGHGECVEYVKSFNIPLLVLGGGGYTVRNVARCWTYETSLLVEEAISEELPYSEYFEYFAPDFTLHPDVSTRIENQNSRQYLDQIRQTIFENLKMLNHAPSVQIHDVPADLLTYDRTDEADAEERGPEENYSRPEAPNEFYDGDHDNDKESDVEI
T3 sequence (Q9Y618 395-489 partner limits assumed): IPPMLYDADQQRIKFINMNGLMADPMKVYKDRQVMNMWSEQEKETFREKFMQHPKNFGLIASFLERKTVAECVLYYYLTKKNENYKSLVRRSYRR
Protocol: as §1, §2, §3

[4] = biological target: T4, Recombinant human HDAC8 (Homo sapiens, UniProt Q9BY41); assay: HDAC-Glo I/II assay, HDAC8; assay type: biochemical; details: Class I HDAC; compounds reduced by TCEP prior to assay
T4 construct: purchased BPS Bioscience Inc
T4 sequence (Q9BY41 1-377): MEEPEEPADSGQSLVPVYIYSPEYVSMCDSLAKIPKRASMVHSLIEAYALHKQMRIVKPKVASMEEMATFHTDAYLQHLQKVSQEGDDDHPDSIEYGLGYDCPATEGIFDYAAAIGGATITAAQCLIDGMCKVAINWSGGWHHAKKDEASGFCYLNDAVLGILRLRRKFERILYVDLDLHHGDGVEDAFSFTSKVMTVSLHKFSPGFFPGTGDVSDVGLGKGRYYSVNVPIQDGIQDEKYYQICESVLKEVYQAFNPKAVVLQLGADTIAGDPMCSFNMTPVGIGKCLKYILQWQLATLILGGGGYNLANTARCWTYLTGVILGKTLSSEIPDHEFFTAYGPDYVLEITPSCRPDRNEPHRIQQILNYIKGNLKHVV
Protocol: as §1, §2, §3

[5] = biological target: T5, Recombinant human HDAC4 (Homo sapiens, UniProt P56524); assay: HDAC-Glo I/II assay, HDAC4; assay type: biochemical; details: Class IIa HDAC; compounds reduced by TCEP prior to assay; read-out: IC50 of HDAC4
T5 construct: purchased BPS Bioscience Inc
T5 sequence (P56524 whole entry): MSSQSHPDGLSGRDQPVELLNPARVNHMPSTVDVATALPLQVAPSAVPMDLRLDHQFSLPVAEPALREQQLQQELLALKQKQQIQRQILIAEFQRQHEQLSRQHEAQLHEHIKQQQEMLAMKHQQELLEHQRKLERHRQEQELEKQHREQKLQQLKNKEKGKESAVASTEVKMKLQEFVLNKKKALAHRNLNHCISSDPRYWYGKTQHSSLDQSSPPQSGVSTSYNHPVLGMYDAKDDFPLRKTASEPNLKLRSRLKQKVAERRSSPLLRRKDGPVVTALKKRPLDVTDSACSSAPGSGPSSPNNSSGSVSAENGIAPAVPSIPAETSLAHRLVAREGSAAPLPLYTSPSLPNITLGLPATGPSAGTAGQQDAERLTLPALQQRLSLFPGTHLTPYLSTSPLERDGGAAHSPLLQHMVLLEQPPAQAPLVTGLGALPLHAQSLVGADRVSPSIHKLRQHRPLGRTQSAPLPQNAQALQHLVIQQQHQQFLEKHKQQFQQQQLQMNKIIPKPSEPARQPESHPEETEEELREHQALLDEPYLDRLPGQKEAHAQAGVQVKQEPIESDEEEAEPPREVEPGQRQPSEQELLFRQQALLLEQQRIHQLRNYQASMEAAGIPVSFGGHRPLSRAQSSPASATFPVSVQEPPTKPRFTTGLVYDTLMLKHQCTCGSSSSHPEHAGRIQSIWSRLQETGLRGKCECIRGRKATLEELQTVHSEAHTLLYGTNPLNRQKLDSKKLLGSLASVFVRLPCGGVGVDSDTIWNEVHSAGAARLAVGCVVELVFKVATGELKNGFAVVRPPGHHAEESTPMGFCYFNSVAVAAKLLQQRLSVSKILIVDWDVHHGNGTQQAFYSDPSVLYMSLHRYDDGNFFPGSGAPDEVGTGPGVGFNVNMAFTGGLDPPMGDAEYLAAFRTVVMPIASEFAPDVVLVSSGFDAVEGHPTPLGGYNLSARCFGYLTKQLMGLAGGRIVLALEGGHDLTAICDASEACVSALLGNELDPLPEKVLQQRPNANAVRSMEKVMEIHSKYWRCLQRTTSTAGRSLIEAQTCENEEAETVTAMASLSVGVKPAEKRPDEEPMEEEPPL
Protocol: as §1, §2, §3

[6] = system: HCT-116 (colon cancer); assay: MTT antiproliferative assay, HCT-116; assay type: cell-based; details: Homo sapiens, read-out: Antiproliferative Activity GI50, Colon HCT-116
Protocol: (§4) Briefly, the tumor cells (1×10^4 cells/well) were seeded in 96-well microtiter plates and incubated for 24 h at 37° C. Following incubation, the media was replaced with fresh media containing the above compounds at concentrations ranging from 1 μM to 1 pM diluted in DMSO and incubated for an additional 48 h. Drugs were run in duplicate or triplicate and control cells received fresh media with DMSO concentration equivalent to the treatment groups. […] After aspirating the culture medium, 200 μL of DMSO was added to dissolve the precipitate and the resulting solution was measured for absorbance at 570 nm with a reference wavelength of 690 nm using a microplate reader (Infinite M200 Pro TECAN).

[7] = system: HeLa (cervical cancer); assay: MTT antiproliferative assay, HeLa; assay type: cell-based; details: Homo sapiens, 48 h, read-out: Antiproliferative Activity GI50, Cervical HeLa
Protocol: as §4

[8] = system: RFX393 (renal); assay: MTT antiproliferative assay, RFX393; assay type: cell-based; details: 48 h, read-out: Antiproliferative Activity GI50, Renal RFX393
Protocol: as §4

[9] = in vivo; details: BALB/c, mouse, in vivo, ip
Description: BALB/c mice were purchased from The Jackson Laboratory (Bar Harbor, Me.) and used between 7 and 10 weeks of age. Mice were housed in a conventional animal vivarium and were given free access to food and water. All studies and procedures were approved by the Animal Care and Use Committee of the University of Wisconsin, Milwaukee.
Each animal was initially weighed using a digital scale and then intraperitoneally (IP) injected with the compounds (listed in Table 2). A single mouse was given a single IP dose of 200 mg/kg, body weight, a second mouse received a dose of 100 mg/kg and a third mouse received a single dose of 50 mg/kg. The mice were observed and weighed every other day for a period of 2 weeks. They were euthanized if they lost more than 20% of their body weight or if there were other signs of significant toxicity. […] This process was repeated until a tolerated dose was found, and the MTD value was determined.
To determine the MTD in vivo, the compounds listed above were injected intraperitoneally into BALB/c mice and morbidity and mortality were monitored over two weeks.

[10] = 10 mg/mL cpd in 20% DMSO/saline
[11] = system: SKOV-3 (ovarian); assay: MTT antiproliferative assay, SKOV-3; assay type: cell-based; details: Homo sapiens, read-out: Antiproliferative Activity GI50, Ovarian SKOV-3
Protocol: as §4

[12] = system: DU-145 (prostate cancer); assay: MTT antiproliferative assay, DU-145; assay type: cell-based; details: Homo sapiens, read-out: Antiproliferative Activity GI50, Prostate DU-145
Protocol: as §4

[13] = system: MDA-MB-231 (breast cancer); assay: MTT antiproliferative assay, MDA-MB-231; assay type: cell-based; details: Homo sapiens, read-out: Antiproliferative Activity GI50, Breast MDA-MB-231
Protocol: as §4

[14] = system: COLO-205 (colon cancer); assay: MTT antiproliferative assay, COLO-205; assay type: cell-based; details: Homo sapiens, read-out: Antiproliferative Activity GI50, Colon COLO-205
Protocol: as §4

[15] = system: colon (HCT-116), cervical (HeLa), and renal (RFX393) tumor cell lines; assay: MTT antiproliferative assay, all three tumor cell lines; assay type: cell-based; details: read-out: GI50 values against all three tumor cell lines
Protocol: as §4

[16] = HCT-116, HeLa, RFX393, summary of Table 3

| Structure (SMILES) | IC50 [1] | Class I selectivity Ratio HDAC 1/HDAC8 [1] | Class I vs. Class IIa Ratio HDAC 1/HDAC6 [1] | IC50 [2] | IC50 [3] | IC50 [4] | IC50 [5] | GI50 ([6]; HCT-116, MTT, 48 h) | GI50 ([7]; MTT) | GI50 ([8]; MTT) | MTD at 2 weeks [9] | Solubility [10] | also measured |
| --- | --- | --- | --- | --- | --- | --- | --- | --- | --- | --- | --- | --- | --- |
| CCC(C)[C@H]1NC(=O)[C@H]2CSSCC/C=C/[C@H](CC(=O)N[C@H](CCSC)C(=O)N2)OC(=O)C[C@@H]1OC(C)=O (stereo partly shown) [TDC3] | 0.0027 µM | 0.00006 | 0.0020 | 0.0442 µM | 0.245 µM | 10 µM | 40.5 µM | 0.12 µM | 0.332 µM | 0.107 µM | > 200 mg/kg | Not soluble |  |
| O=C(CCCCCCC(=O)Nc1ccccc1)NO [SAHA, suberoyl anilide hydroxamic acid, reference compound] |  |  |  |  |  |  |  |  |  |  |  | Not soluble | GI50 ([6]; HCT-116, 48 h): 2.7 µM; GI50 [7]: 2.8 µM; GI50 [8]: 2.5 µM; GI50 ([11]; SK-OV-3, 48 h): 1.5 µM; GI50 ([12]; DU-145, 48 h): 2 µM; GI50 ([13]; MDA-MB-231, 48 h): 1.5 µM; GI50 ([14]; COLO 205, 48 h): 0.5 µM; MTD at 2 weeks ([9]; MTD (toxicity in healthy BALB/c mice), single IP dose, observed 2 weeks): > 200 mg/kg; GI50 [15]: 2.5 to 3 µM |
| CCC(C)[C@H]1NC(=O)[C@H]2CSSCC/C=C/[C@H](CC(=O)N[C@H](CCSC)C(=O)N2)OC(=O)C[C@@H]1OCCC=O (stereo partly shown) [TDC2] | 0.0096 µM | 0.00096 | 0.0064 | 0.037 µM | 0.701 µM | 4.33 µM | 135 µM | 0.056 µM | 0.141 µM | 0.051 µM | 12.5 mg/kg | Not soluble |  |
| CCC(C)C(NC(=O)CC(O)/C=C/CCS)C(=O)O (stereo not shown) [TDF4] | 0.0039 µM |  |  |  | 0.714 µM | 43.9 µM | > 1000 µM | 3.7 µM | 4.8 µM | 4.1 µM | > 200 mg/kg | Mostly soluble | GI50 [15, 16]: ≤ 5 µM |
| CC(C)[C@H](NC(=O)CC(O)/C=C/CCS)C(=O)O (stereo partly shown) [TDF6] | 0.0035 µM | 0.00003 |  | 0.111 µM | 0.0416 µM | 16.6 µM | > 1000 µM | 1.3 µM | 3.6 µM | 3.1 µM | > 200 mg/kg | Soluble | GI50 [15, 16]: ≤ 4 µM |
| CCCC[C@H]1NC(=O)C[C@H]2/C=C/CCSSC[C@@H](NC1=O)C(=O)N[C@H](C(C)CC)[C@@H](O)CC(=O)O2 (stereo partly shown) [TDP-B, Thailandepsin B, reference compound] | 0.0022 µM | 0.00026 | 0.0034 | 0.0256 µM | 0.0482 µM | 10.9 µM | 27.9 µM | 0.002 µM | 0.0021 µM | 0.0022 µM | 6.25 mg/kg | Not soluble |  |
| CCC(C)[C@H]1NC(=O)[C@H]2CSSCC/C=C/[C@H](CC(=O)N[C@H](CCSC)C(=O)N2)OC(=O)C[C@@H]1OC(=O)c1ccccc1 (stereo partly shown) [TDC1] | 0.0109 µM | 0.00252 | 0.0020 | 0.051 µM | 0.64 µM | 3.67 µM | ~500 µM | 0.0247 µM | 0.225 µM | 0.0351 µM | 50 mg/kg | Not soluble | GI50 ([11]; SK-OV-3, MTT, 48 h): 0.03 µM; GI50 ([12]; DU-145, MTT, 48 h): 0.08 µM; GI50 ([13]; MDA-MB-231, MTT, 48 h): 0.04 µM; GI50 ([14]; COLO 205, MTT, 48 h): 0.07 µM |
| CCC(C)[C@H]1NC(=O)[C@H]2CSSCC/C=C/[C@H](CC(=O)N[C@H](CCSC)C(=O)N2)OC(=O)C[C@@H]1O (stereo partly shown) [TDP-A, Thailandepsin A, reference compound] | 0.0024 µM | 0.00065 | 0.0088 | 0.0081 µM | 0.0077 µM | 8.44 µM | 20.5 µM | 0.00093 µM | 0.00036 µM | 0.00047 µM | 6.25 mg/kg | Not soluble | GI50 ([11]; SK-OV-3, MTT, 48 h): 0.002 µM; GI50 ([12]; DU-145, MTT, 48 h): 0.001 µM; GI50 ([13]; MDA-MB-231, MTT, 48 h): 0.003 µM; GI50 ([14]; COLO 205, MTT, 48 h): 0.0035 µM |
